Experiments:
HDAC10 = biological target: T1, HDAC10 (Homo sapiens, UniProt Q969S8); assay: HDAC selectivity profile (Reaction Biology); assay type: biochemical; conditions: no inhibitor control as 100%, read-out: % Enzyme activity HDAC10
T1 construct: purchased Reaction Biology
Experimental: (§1) The reactions were performed by Reaction Biology using a protease-coupled assay with fluorogenic substrates where, after deacetylation by the HDAC and subsequent proteolytic digest, the free fluorophore 7-amino-4-methyl coumarin (AMC) can be quantified.[60] The following substrates were used for activity assays: HDACs 1, 2, 3, and 6: fluorogenic tetrapeptide from p53 residues 379–382 (RHKK(Ac) AMC); HDACs 4, 5, 7, 9, and 11: fluorogenic HDAC class2a substrate (trifluoroacetyl lysine); HDAC8: twice acetylated fluorogenic tetrapeptide from p53 residues 379–382 (RHK(Ac) K(Ac) AMC); HDAC10: Ac-spermidine-AMC. Data are given as % residual activity compared with the uninhibited control reaction.

HDAC11 = biological target: T2, HDAC11 (Homo sapiens, UniProt Q96DB2); assay: HDAC selectivity profile (Reaction Biology); assay type: biochemical; conditions: no inhibitor control as 100%
T2 construct: purchased Reaction Biology
T2 sequence (Q96DB2 1-347): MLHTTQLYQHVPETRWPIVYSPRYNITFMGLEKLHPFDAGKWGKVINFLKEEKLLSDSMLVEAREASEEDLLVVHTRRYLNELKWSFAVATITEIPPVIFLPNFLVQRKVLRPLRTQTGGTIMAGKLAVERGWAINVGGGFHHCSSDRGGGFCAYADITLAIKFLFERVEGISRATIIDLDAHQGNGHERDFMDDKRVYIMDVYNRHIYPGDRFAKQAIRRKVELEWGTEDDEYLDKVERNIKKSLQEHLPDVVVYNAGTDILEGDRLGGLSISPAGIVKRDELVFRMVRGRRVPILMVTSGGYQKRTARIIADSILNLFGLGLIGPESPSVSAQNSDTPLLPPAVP
Experimental: as §1

HDAC4 = biological target: T3, HDAC4 (Homo sapiens, UniProt P56524); assay: HDAC selectivity profile (Reaction Biology); assay type: biochemical; conditions: no inhibitor control as 100%, read-out: % Enzyme activity HDAC4
T3 construct: purchased Reaction Biology
Experimental: as §1

HDAC5 = biological target: T4, HDAC5 (Homo sapiens, UniProt Q9UQL6); assay: HDAC selectivity profile (Reaction Biology); assay type: biochemical; conditions: no inhibitor control as 100%, read-out: % Enzyme activity HDAC5
T4 construct: purchased Reaction Biology
Experimental: as §1

HDAC6 = biological target: T5, HDAC6 (Homo sapiens, UniProt Q9UBN7); assay: HDAC selectivity profile (Reaction Biology); assay type: biochemical; conditions: no inhibitor control as 100%, read-out: % Enzyme activity HDAC6
T5 construct: purchased Reaction Biology
Experimental: as §1

HDAC7 = biological target: T6, HDAC7 (Homo sapiens, UniProt Q8WUI4); assay: HDAC selectivity profile (Reaction Biology); assay type: biochemical; conditions: no inhibitor control as 100%, read-out: % Enzyme activity HDAC7
T6 construct: purchased Reaction Biology
Experimental: as §1

HDAC8 = biological target: T7, HDAC8 (Homo sapiens, UniProt Q9BY41); assay: HDAC selectivity profile (Reaction Biology); assay type: biochemical; conditions: no inhibitor control as 100%, read-out: % Enzyme activity HDAC8
T7 construct: purchased Reaction Biology
Experimental: as §1

HDAC9 = biological target: T8, HDAC9 (Homo sapiens, UniProt Q9UKV0); assay: HDAC selectivity profile (Reaction Biology); assay type: biochemical; conditions: no inhibitor control as 100%, read-out: % Enzyme activity HDAC9
T8 construct: purchased Reaction Biology
Experimental: as §1

[1] = system: zinc-dependent HDACs (HDAC1–11); assay: HDAC selectivity profile, whole panel; assay type: biochemical, human; conditions: 1 and 10 μM
Experimental: as §1

HDAC1 = HDAC1 (Homo sapiens, UniProt Q13547); assay: HDAC selectivity profile (Reaction Biology); assay type: biochemical; set-up: purchased Reaction Biology; conditions: no inhibitor control as 100%, read-out: % Enzyme activity HDAC1
Experimental: as §1

HDAC2 = HDAC2 (Homo sapiens, UniProt Q92769); assay: HDAC selectivity profile (Reaction Biology); assay type: biochemical; set-up: purchased Reaction Biology; conditions: no inhibitor control as 100%, read-out: % Enzyme activity HDAC2
Experimental: as §1

HDAC3 = HDAC3 (Homo sapiens, UniProt O15379); assay: HDAC selectivity profile (Reaction Biology); assay type: biochemical; set-up: purchased Reaction Biology; conditions: no inhibitor control as 100%
Experimental: as §1

[2] = system: HEXIM1 mRNA in PaTu8988T cells; assay: Quantitative RT-PCR of BET-inhibition biomarker; assay type: cell-based; conditions: 6 h, 1 μΜ compound
Experimental: Total RNA was extracted from cell culture using the Maxwell RSC simply RNA Cells Kit (Promega) according to the manufacturer’s protocol. cDNA was synthesized using PrimeScript Reverse Transcriptase (TakaRa) and amplified using homemade PCR master mix. The amplicon was detected by EvaGreen Dye using a LightCycler 480 instrument (Roche). PCR conditions were 5 min at 95 °C, followed by 45 cycles of 95 °C for 10 s, 59 °C for 10 s, and 72 °C for 20 s. The relative gene expression levels were normalized to GUSB and calculated using the 2^–ΔΔC^t method.

Sequence of HDAC3 (O15379 whole entry): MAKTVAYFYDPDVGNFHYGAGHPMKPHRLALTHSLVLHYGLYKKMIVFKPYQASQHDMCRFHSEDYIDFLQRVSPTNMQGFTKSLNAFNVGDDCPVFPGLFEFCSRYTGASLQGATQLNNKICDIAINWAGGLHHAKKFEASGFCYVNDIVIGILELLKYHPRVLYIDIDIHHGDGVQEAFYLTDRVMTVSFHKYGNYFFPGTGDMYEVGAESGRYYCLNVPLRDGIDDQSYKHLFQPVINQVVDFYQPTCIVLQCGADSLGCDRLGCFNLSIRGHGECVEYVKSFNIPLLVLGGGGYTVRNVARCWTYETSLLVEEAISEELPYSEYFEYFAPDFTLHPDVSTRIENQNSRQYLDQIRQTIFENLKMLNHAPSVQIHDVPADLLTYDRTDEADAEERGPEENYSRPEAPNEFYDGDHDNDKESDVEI
Sequence of HDAC3 (Q9Y618 395-489 partner limits assumed): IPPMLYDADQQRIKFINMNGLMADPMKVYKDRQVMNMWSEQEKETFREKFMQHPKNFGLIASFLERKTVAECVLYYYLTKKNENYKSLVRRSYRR
T1 sequence (Q969S8 whole entry): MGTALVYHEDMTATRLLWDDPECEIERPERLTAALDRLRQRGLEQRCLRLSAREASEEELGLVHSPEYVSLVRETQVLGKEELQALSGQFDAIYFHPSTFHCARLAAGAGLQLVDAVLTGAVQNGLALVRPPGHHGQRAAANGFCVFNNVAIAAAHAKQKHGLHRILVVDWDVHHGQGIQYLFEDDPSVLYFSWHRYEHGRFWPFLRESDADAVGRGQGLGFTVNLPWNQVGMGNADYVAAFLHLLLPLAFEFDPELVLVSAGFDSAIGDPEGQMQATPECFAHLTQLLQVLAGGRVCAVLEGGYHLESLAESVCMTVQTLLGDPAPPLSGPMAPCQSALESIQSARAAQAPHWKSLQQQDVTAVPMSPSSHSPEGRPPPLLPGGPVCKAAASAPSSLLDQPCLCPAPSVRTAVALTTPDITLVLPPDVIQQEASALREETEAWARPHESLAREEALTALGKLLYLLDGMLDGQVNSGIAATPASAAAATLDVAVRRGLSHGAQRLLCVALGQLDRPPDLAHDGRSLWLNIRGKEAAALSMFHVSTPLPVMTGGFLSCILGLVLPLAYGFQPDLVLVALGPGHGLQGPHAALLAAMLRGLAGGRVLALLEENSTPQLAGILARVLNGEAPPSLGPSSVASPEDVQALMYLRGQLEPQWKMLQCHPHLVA
T4 sequence (Q9UQL6 whole entry): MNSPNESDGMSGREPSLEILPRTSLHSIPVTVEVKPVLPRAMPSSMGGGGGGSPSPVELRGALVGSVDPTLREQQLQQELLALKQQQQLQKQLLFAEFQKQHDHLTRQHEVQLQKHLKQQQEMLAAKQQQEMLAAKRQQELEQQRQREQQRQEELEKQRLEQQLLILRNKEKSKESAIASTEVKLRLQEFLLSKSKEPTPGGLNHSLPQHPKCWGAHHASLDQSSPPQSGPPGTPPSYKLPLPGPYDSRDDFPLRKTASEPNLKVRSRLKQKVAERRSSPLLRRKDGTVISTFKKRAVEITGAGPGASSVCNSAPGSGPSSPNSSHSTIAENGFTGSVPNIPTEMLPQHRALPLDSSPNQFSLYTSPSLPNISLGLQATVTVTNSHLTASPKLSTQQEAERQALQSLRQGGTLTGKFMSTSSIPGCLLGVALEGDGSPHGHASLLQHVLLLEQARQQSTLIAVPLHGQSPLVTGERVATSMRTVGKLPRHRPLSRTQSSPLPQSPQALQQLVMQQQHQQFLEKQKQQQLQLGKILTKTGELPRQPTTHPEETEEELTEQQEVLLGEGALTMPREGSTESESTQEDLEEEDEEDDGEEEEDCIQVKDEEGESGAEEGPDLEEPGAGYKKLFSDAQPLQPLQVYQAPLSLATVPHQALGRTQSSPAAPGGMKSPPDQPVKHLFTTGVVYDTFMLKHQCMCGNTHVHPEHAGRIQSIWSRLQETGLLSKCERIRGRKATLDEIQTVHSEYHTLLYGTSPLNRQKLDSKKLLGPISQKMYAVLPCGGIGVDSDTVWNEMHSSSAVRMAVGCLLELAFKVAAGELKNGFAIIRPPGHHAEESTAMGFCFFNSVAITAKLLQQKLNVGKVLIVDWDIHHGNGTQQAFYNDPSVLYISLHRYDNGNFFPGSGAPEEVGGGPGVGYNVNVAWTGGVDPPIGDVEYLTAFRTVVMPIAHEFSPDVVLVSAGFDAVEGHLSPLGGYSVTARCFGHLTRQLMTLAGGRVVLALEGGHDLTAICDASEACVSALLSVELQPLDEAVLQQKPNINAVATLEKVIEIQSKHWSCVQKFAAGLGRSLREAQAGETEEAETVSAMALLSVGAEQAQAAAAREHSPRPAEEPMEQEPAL
T7 sequence (Q9BY41 whole entry): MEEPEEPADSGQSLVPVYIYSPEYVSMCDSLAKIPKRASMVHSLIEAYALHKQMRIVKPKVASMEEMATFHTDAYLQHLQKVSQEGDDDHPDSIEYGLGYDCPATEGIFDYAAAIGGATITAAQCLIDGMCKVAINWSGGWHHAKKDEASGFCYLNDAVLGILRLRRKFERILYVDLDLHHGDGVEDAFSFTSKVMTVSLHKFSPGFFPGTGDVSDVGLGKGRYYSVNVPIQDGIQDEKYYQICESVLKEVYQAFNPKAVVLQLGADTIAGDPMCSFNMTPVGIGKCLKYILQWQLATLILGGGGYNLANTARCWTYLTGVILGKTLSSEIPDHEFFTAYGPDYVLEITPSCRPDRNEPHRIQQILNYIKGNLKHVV
Sequence of HDAC1 (Q13547 whole entry): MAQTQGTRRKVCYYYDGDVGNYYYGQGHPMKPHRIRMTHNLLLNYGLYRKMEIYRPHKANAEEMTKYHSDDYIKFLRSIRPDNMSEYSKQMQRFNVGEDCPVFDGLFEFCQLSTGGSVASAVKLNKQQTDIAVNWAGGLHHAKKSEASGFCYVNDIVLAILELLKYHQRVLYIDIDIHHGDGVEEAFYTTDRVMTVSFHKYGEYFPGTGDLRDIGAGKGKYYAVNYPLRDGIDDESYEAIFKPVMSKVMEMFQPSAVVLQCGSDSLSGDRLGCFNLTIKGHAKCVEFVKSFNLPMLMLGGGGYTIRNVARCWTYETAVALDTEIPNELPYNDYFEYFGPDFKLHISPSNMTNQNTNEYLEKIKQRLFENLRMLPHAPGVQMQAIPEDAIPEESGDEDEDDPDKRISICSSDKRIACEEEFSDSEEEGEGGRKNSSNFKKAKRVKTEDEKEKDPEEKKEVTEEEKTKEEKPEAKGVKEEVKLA
T8 sequence (Q9UKV0 whole entry): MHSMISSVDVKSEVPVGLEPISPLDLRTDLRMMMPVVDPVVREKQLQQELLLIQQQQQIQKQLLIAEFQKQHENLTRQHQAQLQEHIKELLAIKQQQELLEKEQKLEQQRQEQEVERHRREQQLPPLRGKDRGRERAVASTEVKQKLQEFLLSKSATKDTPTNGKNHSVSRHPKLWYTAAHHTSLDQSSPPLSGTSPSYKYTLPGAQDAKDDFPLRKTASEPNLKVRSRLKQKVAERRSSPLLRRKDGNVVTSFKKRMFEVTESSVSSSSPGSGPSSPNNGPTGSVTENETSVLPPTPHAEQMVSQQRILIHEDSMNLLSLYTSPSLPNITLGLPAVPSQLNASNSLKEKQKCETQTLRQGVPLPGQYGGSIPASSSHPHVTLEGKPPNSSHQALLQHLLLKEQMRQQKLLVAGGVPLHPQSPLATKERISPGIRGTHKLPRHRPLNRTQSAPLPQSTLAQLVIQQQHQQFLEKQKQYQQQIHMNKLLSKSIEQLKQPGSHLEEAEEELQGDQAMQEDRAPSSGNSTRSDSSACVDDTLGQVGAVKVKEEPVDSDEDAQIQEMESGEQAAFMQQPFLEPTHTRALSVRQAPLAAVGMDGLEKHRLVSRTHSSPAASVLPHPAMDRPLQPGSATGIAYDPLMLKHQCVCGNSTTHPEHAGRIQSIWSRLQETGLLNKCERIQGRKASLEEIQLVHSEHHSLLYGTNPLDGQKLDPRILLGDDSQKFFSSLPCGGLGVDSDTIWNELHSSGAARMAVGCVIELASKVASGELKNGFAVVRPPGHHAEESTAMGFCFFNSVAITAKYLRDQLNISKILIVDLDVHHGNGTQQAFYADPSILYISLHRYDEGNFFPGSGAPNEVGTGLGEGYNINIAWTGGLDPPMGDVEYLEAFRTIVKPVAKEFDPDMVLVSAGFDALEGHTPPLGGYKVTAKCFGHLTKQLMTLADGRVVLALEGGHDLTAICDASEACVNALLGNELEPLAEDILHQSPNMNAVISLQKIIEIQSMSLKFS
Sequence of HDAC2 (Q92769 whole entry): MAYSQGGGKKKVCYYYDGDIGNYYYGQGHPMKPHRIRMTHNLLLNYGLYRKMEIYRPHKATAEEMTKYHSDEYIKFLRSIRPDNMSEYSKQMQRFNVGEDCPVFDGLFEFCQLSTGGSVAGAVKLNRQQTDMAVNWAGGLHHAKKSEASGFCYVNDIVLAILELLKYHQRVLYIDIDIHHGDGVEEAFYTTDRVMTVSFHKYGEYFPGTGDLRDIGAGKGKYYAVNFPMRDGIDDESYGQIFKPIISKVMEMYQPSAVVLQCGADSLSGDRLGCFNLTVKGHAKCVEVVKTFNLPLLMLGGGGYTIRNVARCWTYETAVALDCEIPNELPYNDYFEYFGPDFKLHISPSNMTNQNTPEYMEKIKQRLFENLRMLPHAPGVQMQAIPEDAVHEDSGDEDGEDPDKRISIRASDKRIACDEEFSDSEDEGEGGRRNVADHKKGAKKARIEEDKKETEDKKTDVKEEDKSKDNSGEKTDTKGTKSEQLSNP

SMILES: Cn1cc(-c2ccc(C(=O)Nc3cc(-c4ccccc4)ccc3N)nc2)c2cc[nH]c2c1=O [NB512]
- remaining activity at 1 µM (HDAC10; 1 µM NB512): 98.1%
- remaining activity at 10 µM (HDAC10; 10 µM NB512): 98.6%
- remaining activity at 1 µM (HDAC11; 1 µM NB512, read-out: % Enzyme activity HDAC11): 97.7%
- % Enzyme activity HDAC11 (HDAC11; 10 µM NB512): 60%
- remaining activity at 10 µM (HDAC11; 10 µM NB512, read-out: % Enzyme activity HDAC11): 59.9%
- remaining activity at 1 µM (HDAC4; 1 µM NB512): 91.5%
- remaining activity at 10 µM (HDAC4; 10 µM NB512): 82.4%
- remaining activity at 1 µM (HDAC5; 1 µM NB512): 89.3%
- remaining activity at 10 µM (HDAC5; 10 µM NB512): 84.1%
- remaining activity at 1 µM (HDAC6; 1 µM NB512): 100%
- remaining activity at 10 µM (HDAC6; 10 µM NB512): 90.2%
- remaining activity at 1 µM (HDAC7; 1 µM NB512): 101%
- remaining activity at 10 µM (HDAC7; 10 µM NB512): 101%
- remaining activity at 1 µM (HDAC8; 1 µM NB512): 96.4%
- remaining activity at 10 µM (HDAC8; 10 µM NB512): 97.9%
- remaining activity at 1 µM (HDAC9; 1 µM NB512): 96.2%
- remaining activity at 10 µM (HDAC9; 10 µM NB512): 85%
- selectivity among zinc-dependent HDACs [1]: high selectivity for HDAC1/2
- remaining activity at 1 µM (HDAC1; 1 µM NB512): 20.6%
- remaining activity at 10 µM (HDAC1; 10 µM NB512): 10.3%
- remaining activity at 1 µM (HDAC2; 1 µM NB512): 50.3%
- remaining activity at 10 µM (HDAC2; 10 µM NB512): 13.5%
- remaining activity at 1 µM (HDAC3; 1 µM NB512, read-out: % Enzyme activity HDAC3): 95.5%
- % Enzyme activity HDAC3 (HDAC3; 10 µM NB512): 76%
- remaining activity at 10 µM (HDAC3; 10 µM NB512, read-out: % Enzyme activity HDAC3): 76.4%

SMILES: Cn1cc(-c2ccc(C(=O)Nc3cc(-c4ccccc4)ccc3N)cc2)c2cc[nH]c2c1=O [NB503]
- HEXIM1 mRNA levels [2]: strongest effect

Reference: PMC10878397, “Development of Potent Dual BET/HDAC Inhibitors via Pharmacophore Merging and Structure-Guided Optimization” (ACS Chemical Biology, 2024)
